We go through 37 molecules from ChEMBL document CHEMBL4350951, “Emerging and Re-Emerging Warheads for Targeted Covalent Inhibitors: Applications in Medicinal Chemistry and Chemical Biology” (J Med Chem, 2019).

The target of series [1] is T1, m7GpppX diphosphatase (Homo sapiens, UniProt Q96C86).
T1 sequence (Q96C86 whole entry): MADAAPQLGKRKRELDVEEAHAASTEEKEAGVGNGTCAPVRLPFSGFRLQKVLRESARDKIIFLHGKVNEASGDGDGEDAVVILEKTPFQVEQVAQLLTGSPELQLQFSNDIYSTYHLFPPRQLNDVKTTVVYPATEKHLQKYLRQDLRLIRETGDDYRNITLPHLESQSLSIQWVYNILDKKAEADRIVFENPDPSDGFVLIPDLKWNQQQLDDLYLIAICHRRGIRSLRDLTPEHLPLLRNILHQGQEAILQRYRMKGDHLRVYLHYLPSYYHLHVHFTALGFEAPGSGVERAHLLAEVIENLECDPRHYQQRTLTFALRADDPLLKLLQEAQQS
The experiment in a line: Inhibition of DcpS (unknown origin) using m7GpppA as substrate by ELISA.

Series [2] has as its target T2, Induced myeloid leukemia cell differentiation protein Mcl-1 (Homo sapiens, UniProt Q07820). Put plainly: Binding kinetics to MCl-1 (unknown origin) assessed as dissociation rate constant for state two.
Series [3] concerns the target T2, Induced myeloid leukemia cell differentiation protein Mcl-1. The experiment in a line: Binding kinetics to MCl-1 (unknown origin) assessed as dissociation rate constant for state one.
A short description of series [4]: cells. To be noted: Homo sapiens, MOLP-8.
Description: Cytotoxicity against human MOLP8 cells
Series [5] can be described thus: Half life of the compound at pH 7.5. It is filed as physicochemical.
For series [6], the target named is ALK tyrosine kinase receptor (Homo sapiens, UniProt Q9UM73).
Sequence of ALK tyrosine kinase receptor (Q9UM73 whole entry): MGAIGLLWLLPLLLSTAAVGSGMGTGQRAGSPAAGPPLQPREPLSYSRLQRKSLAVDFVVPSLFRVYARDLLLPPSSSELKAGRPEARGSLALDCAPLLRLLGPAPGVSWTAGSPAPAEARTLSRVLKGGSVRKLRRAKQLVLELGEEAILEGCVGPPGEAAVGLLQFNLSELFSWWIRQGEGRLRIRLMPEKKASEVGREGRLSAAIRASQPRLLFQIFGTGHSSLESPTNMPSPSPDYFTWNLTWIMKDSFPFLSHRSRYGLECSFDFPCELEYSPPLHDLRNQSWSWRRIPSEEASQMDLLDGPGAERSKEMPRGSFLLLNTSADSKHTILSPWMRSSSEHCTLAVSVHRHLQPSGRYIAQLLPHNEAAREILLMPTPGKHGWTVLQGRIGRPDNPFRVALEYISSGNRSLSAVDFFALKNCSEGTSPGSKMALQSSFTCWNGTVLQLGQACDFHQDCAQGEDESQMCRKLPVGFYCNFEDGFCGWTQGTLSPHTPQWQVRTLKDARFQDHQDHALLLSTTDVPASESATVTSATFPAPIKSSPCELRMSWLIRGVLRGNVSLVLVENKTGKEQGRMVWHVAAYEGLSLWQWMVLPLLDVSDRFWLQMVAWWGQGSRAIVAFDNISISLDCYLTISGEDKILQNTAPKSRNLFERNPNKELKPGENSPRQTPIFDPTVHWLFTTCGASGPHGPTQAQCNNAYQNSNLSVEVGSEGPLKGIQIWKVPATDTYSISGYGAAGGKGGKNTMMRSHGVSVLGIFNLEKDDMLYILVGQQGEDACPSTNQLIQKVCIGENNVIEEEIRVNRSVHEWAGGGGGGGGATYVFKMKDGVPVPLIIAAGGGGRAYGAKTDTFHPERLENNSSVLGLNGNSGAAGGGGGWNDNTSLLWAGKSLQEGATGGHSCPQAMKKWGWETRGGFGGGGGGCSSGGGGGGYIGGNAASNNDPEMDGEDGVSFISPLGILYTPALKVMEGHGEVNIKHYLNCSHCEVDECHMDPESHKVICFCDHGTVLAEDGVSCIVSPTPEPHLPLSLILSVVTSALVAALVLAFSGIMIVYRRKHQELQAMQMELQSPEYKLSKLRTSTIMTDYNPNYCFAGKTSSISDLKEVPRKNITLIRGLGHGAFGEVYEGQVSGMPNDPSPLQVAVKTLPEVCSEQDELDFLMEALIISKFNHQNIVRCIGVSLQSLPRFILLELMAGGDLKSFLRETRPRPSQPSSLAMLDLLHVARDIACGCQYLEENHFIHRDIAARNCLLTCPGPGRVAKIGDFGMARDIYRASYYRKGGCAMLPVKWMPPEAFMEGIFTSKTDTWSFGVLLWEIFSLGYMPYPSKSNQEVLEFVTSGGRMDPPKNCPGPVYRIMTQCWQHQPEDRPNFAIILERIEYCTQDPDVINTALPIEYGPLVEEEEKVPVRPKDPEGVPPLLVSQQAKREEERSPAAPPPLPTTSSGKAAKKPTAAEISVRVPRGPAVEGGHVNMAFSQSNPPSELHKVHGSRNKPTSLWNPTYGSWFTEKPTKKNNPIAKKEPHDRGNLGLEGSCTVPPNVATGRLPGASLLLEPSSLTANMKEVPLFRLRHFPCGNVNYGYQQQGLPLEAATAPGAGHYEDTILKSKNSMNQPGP
Description: Inhibition of ALK (unknown origin) by TR-FRET assay
Series [7] can be described thus: Half life in mouse at 20 mg/kg, ip. The class given is ADME, organism-based. The following applies: in vivo.
Series [8] is described as follows: Cysteine reactivity assessed as cysteine oxidation. The class given is physicochemical.
Series [9] addresses Glutathione S-transferase P (Homo sapiens) (UniProt P09211). Put plainly: Inhibition of GSTP1 (unknown origin) assessed as ratio of Kinact to Ki by MS/MS analysis.
Series [10] has as its target T3, Peptidyl-prolyl cis-trans isomerase FKBP1A (Homo sapiens, UniProt P62942). Put plainly: Inhibition of recombinant human FKBP12 after 24 hrs by MS/MS analysis.
A short description of series [11]: Half life of the compound in aqueous buffer at pH 7.2. It is filed as physicochemical.
Series [12] has as its target T3, Peptidyl-prolyl cis-trans isomerase FKBP1A. Put plainly: Inhibition of recombinant human FKBP12 assessed as ratio of Kinact to Ki after 24 hrs by MS/MS analysis.
For series [13], the system named is Hsp90 (human). Put plainly: Inhibition of human Hsp90 assessed as ratio of Kinact to Ki by MS/MS analysis.
Series [14] relates to Hsp90 (human). Put plainly: Inhibition of human Hsp90 by MS/MS analysis.
The target in series [15] is Serine/threonine-protein kinase PLK1 (Homo sapiens, UniProt P53350). Put plainly: Inhibition of PLK1 (unknown origin).
Sequence of Serine/threonine-protein kinase PLK1 (P53350 whole entry): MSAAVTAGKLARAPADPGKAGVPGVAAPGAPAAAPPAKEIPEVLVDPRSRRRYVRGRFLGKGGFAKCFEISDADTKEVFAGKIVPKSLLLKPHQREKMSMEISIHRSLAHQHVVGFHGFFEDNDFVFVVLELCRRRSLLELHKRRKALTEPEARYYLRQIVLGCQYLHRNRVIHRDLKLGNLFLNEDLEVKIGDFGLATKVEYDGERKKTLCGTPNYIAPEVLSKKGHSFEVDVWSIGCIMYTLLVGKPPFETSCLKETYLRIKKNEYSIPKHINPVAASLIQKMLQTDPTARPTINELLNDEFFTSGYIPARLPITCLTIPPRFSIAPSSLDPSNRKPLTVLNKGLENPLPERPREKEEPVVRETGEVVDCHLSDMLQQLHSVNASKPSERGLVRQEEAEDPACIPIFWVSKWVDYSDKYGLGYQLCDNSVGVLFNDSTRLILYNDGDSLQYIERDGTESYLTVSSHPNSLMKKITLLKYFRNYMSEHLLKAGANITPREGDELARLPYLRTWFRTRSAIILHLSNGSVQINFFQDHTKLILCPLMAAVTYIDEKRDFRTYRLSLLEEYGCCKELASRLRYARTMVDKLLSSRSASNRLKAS
The nature of series [16]: Inhibition of PLK1 C675 mutant (unknown origin). The arrangement: species or system Homo sapiens.
Series [17] in a line: Half life in plasma (unknown origin). It is filed as ADME, cell-free.
The target of series [18] is SRSF protein kinase 1 (Homo sapiens, UniProt Q96SB4). Put plainly: Inhibition of SRPK1 (unknown origin) by TR-FRET assay. (In general: TR-FRET usually uses a lanthanide donor and a delayed reading to cut background.)
Sequence of SRSF protein kinase 1 (Q96SB4 whole entry, canonical isoform): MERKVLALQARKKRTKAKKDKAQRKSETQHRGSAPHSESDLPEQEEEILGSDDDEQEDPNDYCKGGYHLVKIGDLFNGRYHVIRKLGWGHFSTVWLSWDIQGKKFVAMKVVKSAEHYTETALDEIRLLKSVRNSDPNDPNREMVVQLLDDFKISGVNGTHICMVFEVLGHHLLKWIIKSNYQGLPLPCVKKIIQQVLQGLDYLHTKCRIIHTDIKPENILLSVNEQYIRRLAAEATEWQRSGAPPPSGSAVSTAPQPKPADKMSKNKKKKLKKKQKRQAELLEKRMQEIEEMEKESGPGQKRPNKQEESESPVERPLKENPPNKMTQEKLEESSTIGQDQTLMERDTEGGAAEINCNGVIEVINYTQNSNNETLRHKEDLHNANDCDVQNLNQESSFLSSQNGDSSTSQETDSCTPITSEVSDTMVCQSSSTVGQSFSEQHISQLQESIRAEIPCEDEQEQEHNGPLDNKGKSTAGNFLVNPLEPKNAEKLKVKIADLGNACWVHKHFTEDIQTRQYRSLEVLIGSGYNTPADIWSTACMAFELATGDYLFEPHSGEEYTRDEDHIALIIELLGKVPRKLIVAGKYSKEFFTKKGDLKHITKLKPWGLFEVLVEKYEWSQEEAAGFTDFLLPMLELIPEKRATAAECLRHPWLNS
In series [19] the target is T4, Phosphatidylinositol 4,5-bisphosphate 3-kinase catalytic subunit delta isoform (Homo sapiens, UniProt O00329).
T4 sequence (O00329 whole entry): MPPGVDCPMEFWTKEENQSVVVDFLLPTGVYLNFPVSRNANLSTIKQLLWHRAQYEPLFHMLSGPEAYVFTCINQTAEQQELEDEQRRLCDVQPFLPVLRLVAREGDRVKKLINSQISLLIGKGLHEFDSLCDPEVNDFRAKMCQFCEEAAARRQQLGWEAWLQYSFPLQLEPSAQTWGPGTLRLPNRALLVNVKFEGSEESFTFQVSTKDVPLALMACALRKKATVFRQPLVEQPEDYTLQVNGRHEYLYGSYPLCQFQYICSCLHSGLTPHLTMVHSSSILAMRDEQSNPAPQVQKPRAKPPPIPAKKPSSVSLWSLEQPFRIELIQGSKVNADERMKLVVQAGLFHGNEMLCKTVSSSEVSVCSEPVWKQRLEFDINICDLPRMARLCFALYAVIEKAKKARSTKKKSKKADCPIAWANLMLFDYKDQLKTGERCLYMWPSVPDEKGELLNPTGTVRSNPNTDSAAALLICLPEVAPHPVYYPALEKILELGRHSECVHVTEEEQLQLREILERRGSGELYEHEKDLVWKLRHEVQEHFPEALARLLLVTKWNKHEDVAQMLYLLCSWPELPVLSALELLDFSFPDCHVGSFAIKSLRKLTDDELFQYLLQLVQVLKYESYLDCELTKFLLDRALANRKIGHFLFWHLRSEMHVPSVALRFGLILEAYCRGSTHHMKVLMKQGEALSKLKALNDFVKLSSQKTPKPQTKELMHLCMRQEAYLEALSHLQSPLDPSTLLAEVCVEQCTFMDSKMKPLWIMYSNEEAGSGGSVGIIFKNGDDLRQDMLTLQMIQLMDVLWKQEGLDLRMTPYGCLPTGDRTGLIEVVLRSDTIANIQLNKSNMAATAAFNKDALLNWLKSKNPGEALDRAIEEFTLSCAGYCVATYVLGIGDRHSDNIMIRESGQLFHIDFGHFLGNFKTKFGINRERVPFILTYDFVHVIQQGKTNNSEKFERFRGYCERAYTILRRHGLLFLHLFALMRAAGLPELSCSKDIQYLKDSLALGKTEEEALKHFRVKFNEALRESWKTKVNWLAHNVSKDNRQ
The experiment in a line: (§1) Inhibition of PI3Kdelta (unknown origin).

Series [20] deals with Mycobacterium tuberculosis. The experiment in a line: Inhibition of Mycobacterium tuberculosis ICL1 assessed as ratio of Kinact to Ki.
Series [21] can be described thus: Dissociation constant, pKa of the compound. The class given is physicochemical.
The target of series [22] is T5, Phosphatidylinositol 4,5-bisphosphate 3-kinase catalytic subunit delta isoform (Homo sapiens) (UniProt O00329).
T5 sequence (whole entry): T4 sequence (O00329 whole entry)
The description is as §1.

By IC50 is commonly meant the concentration at which inhibition is half-maximal. Lower therefore signals greater potency. In general, koff refers to a measure of how fast the partners let go of each other. Usually EC50 stands for the concentration needed to bring the measured effect to its halfway point. Low readings indicate greater potency, high ones weaker potency. Usually half-life stands for the time needed for the level to fall by half in the phase considered. In general, Ki refers to the dissociation constant of the complex between target and ligand, obtained from inhibition or displacement. A word on the pKa: it is the pH at which an ionisable group is half protonated. Higher therefore signals a weaker acid or stronger base.

T2 sequence (Q07820 whole entry): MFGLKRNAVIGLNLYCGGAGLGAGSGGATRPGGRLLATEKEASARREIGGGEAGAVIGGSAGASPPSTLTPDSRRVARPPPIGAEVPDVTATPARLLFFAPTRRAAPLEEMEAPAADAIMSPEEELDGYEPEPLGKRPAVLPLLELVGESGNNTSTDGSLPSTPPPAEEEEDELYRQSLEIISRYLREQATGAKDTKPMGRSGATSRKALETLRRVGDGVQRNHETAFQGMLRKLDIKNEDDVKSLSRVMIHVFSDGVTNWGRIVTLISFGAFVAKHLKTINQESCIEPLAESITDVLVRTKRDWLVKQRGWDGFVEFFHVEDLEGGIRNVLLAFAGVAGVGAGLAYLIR
T3 sequence (P62942 whole entry): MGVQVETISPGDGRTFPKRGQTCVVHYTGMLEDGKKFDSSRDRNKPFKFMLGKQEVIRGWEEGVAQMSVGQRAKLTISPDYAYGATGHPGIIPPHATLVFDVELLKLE
Sequence of Glutathione S-transferase P (Homo sapiens) (P09211 2-210 limits assumed): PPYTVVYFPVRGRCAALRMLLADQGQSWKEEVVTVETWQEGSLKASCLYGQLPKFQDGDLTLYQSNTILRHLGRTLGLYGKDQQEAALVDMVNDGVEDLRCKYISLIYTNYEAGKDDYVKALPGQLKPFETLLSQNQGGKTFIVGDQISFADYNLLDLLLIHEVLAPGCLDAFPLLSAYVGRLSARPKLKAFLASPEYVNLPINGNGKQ

On to `Nc1nc(N)c2c(OCc3ccc(S(=O)(=O)F)cc3)cccc2n1`, for which the IC50 in series [1] is under 0.02 nM.

`Cc1c(-c2cccc3c(CCCOc4cccc5ccccc45)c(C(=O)O)n(C)c23)c(COc2ccc(B(O)O)c(C=O)c2)nn1C`: the koff in series [2] is 0.01 s⁻¹; in series [3], 0.13 s⁻¹. In addition, in series [4], the midpoint of the response, the EC50, lay at 75 nM.

Consider `O=S(=O)(F)c1ccccc1`, for which the half-life in [5] fell in the range of 0.0833 to 0.25 h.

The molecule `CCc1cc2c(cc1-c1cccc(S(=O)(=O)F)c1)C(C)(C)c1[nH]c3cc(C#N)ccc3c1C2=O` showed a half-maximal inhibitory concentration (IC50) in series [6] of 11 nM.

As for `C#Cc1cccc(Oc2ccc(-c3nn([C@@H]4CCCN(C(=O)/C=C/C(=O)O)C4)c4ncnc(N)c34)cc2)c1`, in series [7], the half-life amounted to 2.15 h.

As to `C#CCCCN1CC(=O)CC1=O`, in series [8], the K was determined as 330 M⁻¹ s⁻¹.

Turning to `CC(=O)CS(=O)(=O)c1ccccc1`, the K in series [8] was determined as 8.7 min⁻¹.

Consider `C[C@@H]1CCN(C(=O)CC#N)C[C@@H]1N(C)c1ncnc2[nH]ccc12` [TOFACITINIB], for which the K in [8] came to 0.4 min⁻¹.

Regarding `C#Cc1cccc(Oc2ccc(-c3nn([C@@H]4CCCN(C(=O)/C=C/C(=O)OC(C)C)C4)c4ncnc(N)c34)cc2)c1`, the half-life in series [7] is under 0.0333 h.

Consider `O=C1CC(=O)NC(=O)N1` [BARBITURIC ACID], for which the K in series [8] came out at 0.2 min⁻¹.

Take `O=C1CS(=O)(=O)N(Cc2ccccc2)c2ccccc21`: the K in [8] worked out at 190.5 min⁻¹.

`CC(=O)CC(C)=O`: the K in series [8] was determined as 3.8 min⁻¹.

With `O=C1CC(=O)c2ccccc21`, the K in series [8] is 22.9 min⁻¹.

For `C#CCCCN1CS(=O)(=O)CC1=O`, the K in series [8] came to 20 M⁻¹ s⁻¹.

Regarding `C#CCCCN(c1nc(Cl)nc(Cl)n1)[C@@H](CC(C)C)C(=O)OC`, the Ratio in series [9] was determined as 3.12 M⁻¹ s⁻¹.

For `CCC(C)(C)C(=O)C(=O)N1CCCC[C@H]1C(=O)O[C@H](CCc1ccc(OC)c(OC)c1)c1cccc(OCC(=O)NCCCCCNC(=O)c2ccc(S(=O)(=O)N(CC#N)C(=O)CCCC[C@@H]3SC[C@@H]4NC(=O)N[C@@H]43)cc2)c1`, in series [10], the Ki amounted to 210 nM and the Kinact was 6.1 ×10⁻³ /s. The molecule further showed a half-life in series [11] of 43 h. For the same molecule, in [12], the Ratio was determined as 2.9 ×10⁴ /M/s.

As to `O=C1CCN(Cc2ccccc2)C(=O)C1`, in series [8], the K came to 86.4 min⁻¹.

As for `O=C1CCCC(=O)C1`, the K in series [8] came out at 0.4 min⁻¹.

As to `CS(=O)(=O)CC#N`, the K in series [8] turned out to be 28.6 min⁻¹.

For `O=C1CCC(=O)C1`, the K in [8] stood at 0.02 min⁻¹.

`N#CCN(C(=O)CCCC(=O)NCCCn1c(Sc2cc3c(cc2I)OCO3)nc2c(N)ncnc21)S(=O)(=O)c1ccccc1`: the Ratio in [13] is 2.9 ×10⁴ /M/s. This molecule came in with a Ki in series [14] of 62 nM.

As for `NC(=O)c1sc2c([n+]1[O-])C(SC[C@H](N)C(=O)O)C(C(F)(F)F)=CC2[N+](=O)[O-]` (stereo partly drawn), the IC50 was 2500 nM in [15] and over 100000 nM in series [16].

On to `CN(C)c1ccc(S(=O)(=O)F)cc1`, for which, in series [17], the half-life was 25.1 h.

On to `CCc1cc2c(cc1N1CCC(N3CCOCC3)CC1)C(C)(C)c1[nH]c3cc(C#N)ccc3c1C2=O` [ALECTINIB], for which the midpoint of inhibition in [18], the IC50, lay at 11 nM.

As to `C#CCCCC1CCC(=O)CC1=O` (stereo not drawn), in series [8], the K is 10 M⁻¹ s⁻¹.

Turning to `N#CCS(=O)(=O)c1ccccc1`, in series [8], the K came out at 78 min⁻¹.

On to `C#CCCCN1CCC(=O)CC1=O`, for which the K in series [8] came to 1155 M⁻¹ s⁻¹.

On to `Cc1c(-c2cccc3c(CCCOc4cccc5ccccc45)c(C(=O)O)[nH]c23)c(COc2ccc(B(O)O)c(C=O)c2)nn1C`, for which the koff amounted to 0.018 s⁻¹ in [2] and 0.14 s⁻¹ in [3].

Regarding `C#Cc1cccc(Oc2ccc(-c3nn([C@@H]4CCCN(C(=O)C=C)C4)c4ncnc(N)c34)cc2)c1`, the half-life in series [7] amounted to 2.8 h.

In series [7], `C#Cc1cccc(Oc2ccc(-c3nn([C@@H]4CCCN(C(=O)/C=C/C(=O)OC)C4)c4ncnc(N)c34)cc2)c1` had a half-life of under 0.0333 h.

Regarding `C#CCCCN1c2ccccc2C(=O)CS1(=O)=O`, the K in series [8] came out at 1700 M⁻¹ s⁻¹.

In the case of `O=C1CS(=O)(=O)Cc2ccccc21`, the K in series [8] turned out to be 54.9 min⁻¹.

The molecule `COc1ncc(-c2cc(-c3ncc(CN4CCN(C(C)C)CC4)o3)c3cn[nH]c3c2)cc1C(=O)Oc1ccc(C)cc1C` gave a Ki in [19] of 7800 nM.

For `NC(=O)c1sc2c([n+]1[O-])C(SC[C@H](N)C(=O)O)C(SC(F)(F)F)=CC2[N+](=O)[O-]` (stereo partly drawn), the IC50 in [15] came out at 400 nM.

As to `O=[N+]([O-])CS(=O)(=O)c1ccccc1`, in series [8], the K came out at 7.8 min⁻¹.

In the case of `O=C(O)CC=[N+]([O-])[O-]`, the Ratio in [20] amounted to 2.6 ×10⁴ /M/s. The pKa in series [21] stood at 9.

On to `COc1ncc(-c2cc(-c3ncc(CN4CCN(C(C)C)CC4)o3)c3cn[nH]c3c2)cc1C(=O)Oc1ccc([N+](=O)[O-])cc1`, for which, in series [22], the Kinact was 0.0055 s⁻¹. Also, in series [19], the midpoint of inhibition, the IC50, lay at 0.617 nM and the Ki came to 40 nM.
